C(=Cc1ccc(-c2nc3ccccc3o2)cc1)c1ccc(-c2nc3ccccc3o2)cc1
solubility (mole fraction)
Conditions | 323.15 K | 338.15 K | 353.15 K | 368.15 K | 383.15 K
in DMF | 3.02e-06 | 7.12e-06 | 1.04e-05 | 1.57e-05 | 2.63e-05
in NMP | 3.18e-06 | 7.96e-06 | 1.37e-05 | 2.44e-05 | 3.99e-05
in chlorobenzene | 8.89e-06 | 2.1e-05 | 3.65e-05 | 4.9e-05 | 5.59e-05
in water | 1.3e-07 | 3.39e-07 | 5.56e-07 | 6.6e-07 | –

— BigSolDB 2.1
